Experiments:
Experiment in all cases: Dasatinib-matrix competition in K562 lysate
Conditions in all cases: residual binding 50 value; read-out: RB50 (the source's name)
TKT = target: T1, TKT (Homo sapiens, UniProt P29401)
T1 construct: endogenous in cells; host or cells: K562

PIK3R4 = target: T2, PIK3R4 (Homo sapiens, UniProt Q99570)
T2 construct: endogenous in cells; host or cells: K562

SPEG = target: T3, SPEG (Homo sapiens, UniProt Q15772)
T3 construct: endogenous in cells; host or cells: K562

TTN = target: T4, TTN (Homo sapiens, UniProt Q8WZ42)
T4 construct: endogenous in cells; host or cells: K562

TEX14 = target: T5, TEX14 (Homo sapiens, UniProt Q8IWB6)
T5 construct: endogenous in cells; host or cells: K562

N-TAF1 = target: T6, N-TAF1 (Homo sapiens, UniProt P21675)
T6 construct: endogenous in cells; host or cells: K562

OBSCN = target: T7, OBSCN (Homo sapiens, UniProt Q5VST9)
T7 construct: endogenous in cells; host or cells: K562

SMG1 = target: T8, SMG1 (Homo sapiens, UniProt Q96Q15)
T8 construct: endogenous in cells; host or cells: K562

ATM = ATM (Homo sapiens, UniProt Q13315); parameters: endogenous in cells; host or cells: K562
ATR = target: T9, ATR (Homo sapiens, UniProt Q13535)
T9 construct: endogenous in cells; host or cells: K562
T9 sequence (Q13535 whole entry): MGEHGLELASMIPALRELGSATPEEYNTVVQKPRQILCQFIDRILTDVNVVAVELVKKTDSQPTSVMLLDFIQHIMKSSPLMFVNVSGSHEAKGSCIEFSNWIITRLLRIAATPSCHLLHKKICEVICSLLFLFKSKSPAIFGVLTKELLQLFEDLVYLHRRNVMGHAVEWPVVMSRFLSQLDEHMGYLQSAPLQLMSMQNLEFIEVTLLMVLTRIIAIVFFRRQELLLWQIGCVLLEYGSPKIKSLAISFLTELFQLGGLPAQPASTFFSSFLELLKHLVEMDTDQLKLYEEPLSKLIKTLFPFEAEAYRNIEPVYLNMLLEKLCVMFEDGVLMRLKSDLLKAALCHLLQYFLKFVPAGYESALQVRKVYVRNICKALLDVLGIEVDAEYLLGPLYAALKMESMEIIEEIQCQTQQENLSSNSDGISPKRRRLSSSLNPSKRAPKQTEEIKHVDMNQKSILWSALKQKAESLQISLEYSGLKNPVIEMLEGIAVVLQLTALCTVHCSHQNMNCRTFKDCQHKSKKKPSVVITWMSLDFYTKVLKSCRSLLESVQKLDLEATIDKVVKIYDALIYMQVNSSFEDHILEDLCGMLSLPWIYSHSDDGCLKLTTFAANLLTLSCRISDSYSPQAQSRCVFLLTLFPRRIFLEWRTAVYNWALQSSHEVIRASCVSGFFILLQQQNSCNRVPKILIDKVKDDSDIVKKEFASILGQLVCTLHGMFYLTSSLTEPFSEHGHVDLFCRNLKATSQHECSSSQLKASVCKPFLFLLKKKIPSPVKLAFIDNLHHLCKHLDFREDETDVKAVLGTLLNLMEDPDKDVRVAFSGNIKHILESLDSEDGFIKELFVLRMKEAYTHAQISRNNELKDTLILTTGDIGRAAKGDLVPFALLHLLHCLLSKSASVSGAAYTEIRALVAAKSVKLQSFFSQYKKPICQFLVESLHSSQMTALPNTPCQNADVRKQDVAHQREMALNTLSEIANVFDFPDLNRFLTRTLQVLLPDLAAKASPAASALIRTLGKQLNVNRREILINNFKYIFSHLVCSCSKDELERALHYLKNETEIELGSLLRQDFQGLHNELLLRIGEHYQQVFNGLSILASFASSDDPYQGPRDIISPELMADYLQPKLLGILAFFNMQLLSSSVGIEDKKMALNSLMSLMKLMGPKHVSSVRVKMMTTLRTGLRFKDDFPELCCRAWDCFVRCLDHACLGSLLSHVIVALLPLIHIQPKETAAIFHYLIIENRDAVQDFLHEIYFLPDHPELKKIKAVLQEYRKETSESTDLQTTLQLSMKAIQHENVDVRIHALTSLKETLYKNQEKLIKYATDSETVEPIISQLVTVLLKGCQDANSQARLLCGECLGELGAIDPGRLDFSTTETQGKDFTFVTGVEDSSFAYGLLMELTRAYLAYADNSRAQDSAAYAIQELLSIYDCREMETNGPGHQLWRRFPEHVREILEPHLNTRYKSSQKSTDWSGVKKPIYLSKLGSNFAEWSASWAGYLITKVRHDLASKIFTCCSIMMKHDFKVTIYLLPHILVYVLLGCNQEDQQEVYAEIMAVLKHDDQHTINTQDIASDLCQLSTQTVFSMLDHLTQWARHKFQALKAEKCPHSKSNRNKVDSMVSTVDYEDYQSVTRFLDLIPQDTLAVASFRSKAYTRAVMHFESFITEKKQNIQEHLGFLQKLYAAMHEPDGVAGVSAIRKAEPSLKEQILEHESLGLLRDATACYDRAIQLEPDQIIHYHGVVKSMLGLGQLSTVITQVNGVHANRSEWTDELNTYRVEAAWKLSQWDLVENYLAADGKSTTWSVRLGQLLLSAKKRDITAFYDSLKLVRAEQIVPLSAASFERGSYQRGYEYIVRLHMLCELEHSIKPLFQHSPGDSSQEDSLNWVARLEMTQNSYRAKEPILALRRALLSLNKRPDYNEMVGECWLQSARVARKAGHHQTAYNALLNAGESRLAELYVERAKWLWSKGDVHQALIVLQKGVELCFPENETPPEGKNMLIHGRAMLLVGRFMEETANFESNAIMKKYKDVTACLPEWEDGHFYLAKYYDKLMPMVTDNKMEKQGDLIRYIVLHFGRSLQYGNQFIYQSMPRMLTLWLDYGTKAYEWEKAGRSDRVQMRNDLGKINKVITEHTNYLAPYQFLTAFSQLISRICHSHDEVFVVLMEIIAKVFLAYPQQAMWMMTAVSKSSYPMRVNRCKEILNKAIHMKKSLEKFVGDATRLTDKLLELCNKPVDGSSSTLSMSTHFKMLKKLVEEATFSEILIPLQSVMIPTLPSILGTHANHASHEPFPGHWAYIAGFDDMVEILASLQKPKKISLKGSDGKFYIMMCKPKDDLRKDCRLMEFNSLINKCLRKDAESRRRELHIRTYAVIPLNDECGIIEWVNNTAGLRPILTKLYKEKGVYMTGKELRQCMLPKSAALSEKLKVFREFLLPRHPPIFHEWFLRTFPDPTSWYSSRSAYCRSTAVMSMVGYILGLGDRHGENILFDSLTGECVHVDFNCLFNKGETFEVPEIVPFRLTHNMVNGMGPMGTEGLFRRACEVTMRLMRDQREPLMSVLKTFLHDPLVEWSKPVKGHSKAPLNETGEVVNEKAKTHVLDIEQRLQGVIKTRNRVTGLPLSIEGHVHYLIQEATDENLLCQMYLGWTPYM
T9 sequence (Q8WXE1 whole entry partner): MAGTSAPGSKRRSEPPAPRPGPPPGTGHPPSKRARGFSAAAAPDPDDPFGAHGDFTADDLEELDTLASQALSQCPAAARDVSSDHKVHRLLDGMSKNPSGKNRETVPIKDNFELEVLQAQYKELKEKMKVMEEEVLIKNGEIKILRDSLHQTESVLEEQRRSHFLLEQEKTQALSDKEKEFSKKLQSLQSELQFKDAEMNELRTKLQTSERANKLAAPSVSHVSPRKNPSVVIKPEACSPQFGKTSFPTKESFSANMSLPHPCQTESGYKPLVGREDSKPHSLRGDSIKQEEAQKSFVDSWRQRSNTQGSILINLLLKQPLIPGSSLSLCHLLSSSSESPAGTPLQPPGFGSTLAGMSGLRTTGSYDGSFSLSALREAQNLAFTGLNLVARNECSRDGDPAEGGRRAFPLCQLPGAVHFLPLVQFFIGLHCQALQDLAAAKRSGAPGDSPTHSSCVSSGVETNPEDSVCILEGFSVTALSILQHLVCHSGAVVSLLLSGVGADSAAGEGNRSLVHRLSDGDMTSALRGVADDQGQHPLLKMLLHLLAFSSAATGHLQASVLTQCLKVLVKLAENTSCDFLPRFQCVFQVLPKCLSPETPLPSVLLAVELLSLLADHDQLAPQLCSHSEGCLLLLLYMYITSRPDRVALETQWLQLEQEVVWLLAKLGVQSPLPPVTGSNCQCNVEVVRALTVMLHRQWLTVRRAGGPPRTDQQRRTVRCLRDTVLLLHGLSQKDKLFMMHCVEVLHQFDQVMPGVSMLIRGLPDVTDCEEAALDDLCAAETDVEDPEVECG

T1 sequence (P29401 whole entry): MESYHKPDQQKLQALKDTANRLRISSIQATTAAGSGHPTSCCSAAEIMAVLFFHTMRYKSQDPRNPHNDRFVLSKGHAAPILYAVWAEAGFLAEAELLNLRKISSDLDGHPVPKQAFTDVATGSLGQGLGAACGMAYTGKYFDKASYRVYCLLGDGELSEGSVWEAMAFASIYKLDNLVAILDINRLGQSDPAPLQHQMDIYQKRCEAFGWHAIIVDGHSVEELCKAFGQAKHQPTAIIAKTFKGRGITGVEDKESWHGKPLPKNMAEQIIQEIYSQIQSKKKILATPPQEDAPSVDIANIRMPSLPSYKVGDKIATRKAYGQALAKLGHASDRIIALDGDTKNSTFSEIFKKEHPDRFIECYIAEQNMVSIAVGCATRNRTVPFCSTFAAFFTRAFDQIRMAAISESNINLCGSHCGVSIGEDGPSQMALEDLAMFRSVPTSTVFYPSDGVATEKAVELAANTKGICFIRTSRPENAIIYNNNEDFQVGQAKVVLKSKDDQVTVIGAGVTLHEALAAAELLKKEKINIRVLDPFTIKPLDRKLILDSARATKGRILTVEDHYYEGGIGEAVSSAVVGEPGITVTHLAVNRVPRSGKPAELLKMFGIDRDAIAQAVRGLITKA

- IC50 (TKT): > 10 µM
- IC50 (PIK3R4): > 10 µM
- IC50 (SPEG): > 10 µM
- IC50 (TTN): > 10 µM
- IC50 (TEX14): > 10 µM
- IC50 (N-TAF1): 9.66 µM
- IC50 (OBSCN): > 10 µM
- IC50 (SMG1): > 10 µM
- IC50 (ATM): > 10 µM
- IC50 (ATR): > 10 µM
SMILES: Cc1nc(Nc2ncc(C(=O)Nc3c(C)cccc3Cl)s2)cc(N2CCN(CCO)CC2)n1 [Dasatinib]

Source: PMC5513037, “Examining the influence of specificity ligands and ATP-competitive ligands on the overall effectiveness of bivalent kinase inhibitors” (Proteome Science, 2017)
